Consider two compounds from EP0621342A1, “Reagent and kit for determining isoprenylating activity and inhibition thereof” (NEDERLANDSE ORGANISATIE VOOR …, priority 1993, dated 1994).

This experiment deals with protein:farnesyltransferase (Oryctolagus cuniculus, UniProt G1SFC8+G1T7D9). As to the kind of experiment: Inhibition of protein:farnesyl transferase activity in rabbit reticulocyte lysate (Sepharose-bound peptide, 3H-FPP). The format is biochemical. Particulars: 80 pmol of pepAsep and pepBsep/5 µl beads, 0.7 µM ³H-FPP, 30 min at 37°C, read-out: IC₅₀-value. As to the method: Commercially available rabbit reticulocyte lysate contains enzymes necessary for protein-isoprenylation, such as protein:farnesyl transferase activity (Vorburger, K., Kitten, G.T. and Nigg, E.G., EMBO J. 8 (1989) 4007-4013) and protein:geranylgeranyl transferase (Maltese, W.A. and Robishaw, J.D., J. Biol. Chem. 265 (1990) 18071-18074). Using pepAsep (example I) as substrate and pepBsep (example I) as control the assay of protein:farnesyl transferase activity was performed as follows: In 25 µl of a mixture containing 5 µl of pepAsep or pepBsep (both containing an equal quantity of peptide), 13 µl rabbit reticulocyte lysate (Promega), 0.5 mM MgCl₂, 1 mM DTT, 50 mM Tris-HCl (pH 7.4) and [³H]-farnesyl pyrophosphate (³H-FPP; concentration as indicated in the figures; specific radioactivity 15 Ci/mmol; ARC, USA) the incubation was performed at 37°C for 30 min with continuous shaking. […] The radioactivity bound to the Sepharose was measured in a Packard Tricarb liquid scintillation counter. […]
80 pmol of pepAsep and pepBsep/5 µl Sepharose were incubated for 30 minutes in the presence of 0.7 µM of [³H]-FPP and the indicated concentrations of the farnesyl pyrophosphate analogues FPPA1 and FPPA2 as mentioned in Example IV. The farnesylation activity was calculated as ³H-dpm bound to pepAsep minus the pepBsep-bound-dpm and expressed as percentage of control (without inhibitor). […]

Regarding `CC(C)=CCC/C(C)=C/CC/C(C)=C/COCP(=O)(O)CP(=O)(O)O` [FPPA1, (E,E) -[Hydroxy-(3,7,11-trimethyl-2,6,10-dodecatrienyloxymethylphosphinyl)methyl]phosphonic acid], the IC50 was found to be 5260 ± 1100 nM.
Consider `CC(C)=CCCC(C)=CCCC(C)=CCP(=O)(O)OP(=O)(O)O` [FPPA2, farnesyl phosphonophosphate], for which the IC50 stood at 290 ± 20 nM.
